Assay results reported in article PMC6150311, “Proline-Based Carbamates as Cholinesterase Inhibitors” (Molecules : A Journal of Synthetic Chemistry and Natural …, 2017).

Experiments:
[1] = target: T1, BChE from equine serum (Equus caballus, UniProt P81908); assay: In vitro BChE inhibition, modified Ellman's method; assay type: biochemical; conditions: for SI (index selectivity) = IC50 (AChE)/IC50 (BChE): ratio AChE/BChE, higher = more selective to BChE
T1 construct: BChE (from equine serum); purchased Sigma, St. Louis, MO, USA; host or cells: equine serum
Description: (§1) The ability of all prepared compounds to inhibit AChE from electric eel (Electrophorus electricus) and BChE from equine serum (both purchased from Sigma, St. Louis, MO, USA) was determined in vitro using a modified Ellman’s method. […] The Ellman’s method is widely used for measuring cholinesterase activity and the effectivity of ChEIs. It is a simple, rapid and direct method to determine SH and –S–S– groups content in proteins. Cholinesterase activity is measured indirectly by quantifying the concentration of 5-thio-2-nitrobenzoic acid (TNB) ion formed in the reaction between disulfide reagent 5,5′-dithiobis-2-nitrobenzoic acid (DTNB) and thiocholine, a product of substrate (i.e., acetylthiocholine, ATCh) hydrolysis catalyzed by cholinesterase.
(§2) All tested compounds were dissolved in DMSO (concentration 0.01 M) and diluted in demineralized water (concentrations 0.001 M and 0.0001 M). The ability of tested compounds to inhibit AChE (from electric eel) and BChE (from equine serum) was determined using the modified Ellman’s method at 25 °C in the presence of phosphate buffered saline (PBS, 0.1 M, pH 7.4) in a glass cuvette with 1 cm optical path. The enzyme activity in total reaction mixture (2 mL) was 0.2 U/mL, the concentration of substrate ATCh 40 μM and the concentration of DTNB 0.1 mM for all reactions. The IC50 value was obtained from the dependence of v0/vi on the concentration of the tested compound (inhibitor), where v0 is the reaction rate of uninhibited reaction and vi is the reaction rate of inhibited reaction (for the given concentration of the inhibitor). First, v0 was determined. Into the cuvette PBS (0.1 M, pH 7.4), DTNB and ATCh were placed. The enzymatic reaction was started by adding the enzyme. […] The measurement was performed in triplicate at least, and average v0 was determined. Then, vi (for the given concentration of the inhibitor) was determined. Into the cuvette DTNB, ATCh, a chosen volume of the suitably diluted inhibitor (to achieve the required concentration of the inhibitor in the total reaction mixture) and a certain volume of PBS (to achieve the total volume of the reaction mixture 2 mL after adding the enzyme) were placed. The enzymatic reaction was started by adding the enzyme. […] For determination of IC50 values, twelve different concentrations of inhibitor were used and each measurement was performed in triplicate at least.

[2] = tested on: human monocytic leukemia THP-1 cells; assay: In vitro cytotoxicity assay (WST-1); assay type: cell-based; conditions: 24 h, highest tested concentration 30 μM, read-out: tox. IC50
Description: The cytotoxicity was evaluated as the IC50 value (compound concentration causing 50% inhibition of cell population proliferation) (see Table 1). […] Based on these observations, it can be concluded that the discussed compounds can be considered as non-toxic agents for subsequent design of novel drugs.
Human monocytic leukemia THP-1 cells were used for in vitro toxicity assay. Cells were obtained from the European Collection of Cell Cultures (ECACC, Salisbury, UK) and routinely cultured in RPMI 1640 (Lonza, Verviers, Belgium) medium supplemented with 10% fetal bovine serum (FBS, Sigma), 2% L-glutamine, 1% penicillin and streptomycin (Lonza, Verviers, Belgium) at 37 °C with 5% CO2. Cells were passaged at approximately one week intervals. The cytotoxicity of the compounds was determined using a WST-1 assay kit (Roche Diagnostics, Mannheim, Germany) according to the manufacturer’s instructions. The tested compounds were dissolved in DMSO and added in five increasing concentrations (0.37, 1.1, 3.3, 10, and 30 μM) to the cell suspension in the culture RPMI 1640 medium. The maximum concentration of DMSO (Sigma) in the assays never exceeded 0.1%. Subsequently, the cells were incubated for 24 h at 37 °C with 5% CO2. For WST-1 assays, cells were seeded into 96-well plates (5 × 10^4 cells/well in 100 μL culture medium) in triplicate in serum-free RPMI 1640 medium, and measurements were taken 24 h after the treatment with the compounds. The median inhibition concentration values, IC50, were deduced through the production of a dose-response curve. All data were evaluated using the GraphPad Prism 5.00 software (GraphPad Software, San Diego, CA, USA).

[3] = target: T2, AChE from electric eel (Electrophorus electricus) (Electrophorus electricus, UniProt O42275); assay: In vitro AChE inhibition, modified Ellman's method; assay type: biochemical
T2 construct: AChE (from electric eel) and BChE (from equine serum); purchased Sigma, St. Louis, MO, USA; host or cells: electric eel (animal source)
Description: as §1, §2

T2 sequence (O42275 24-633): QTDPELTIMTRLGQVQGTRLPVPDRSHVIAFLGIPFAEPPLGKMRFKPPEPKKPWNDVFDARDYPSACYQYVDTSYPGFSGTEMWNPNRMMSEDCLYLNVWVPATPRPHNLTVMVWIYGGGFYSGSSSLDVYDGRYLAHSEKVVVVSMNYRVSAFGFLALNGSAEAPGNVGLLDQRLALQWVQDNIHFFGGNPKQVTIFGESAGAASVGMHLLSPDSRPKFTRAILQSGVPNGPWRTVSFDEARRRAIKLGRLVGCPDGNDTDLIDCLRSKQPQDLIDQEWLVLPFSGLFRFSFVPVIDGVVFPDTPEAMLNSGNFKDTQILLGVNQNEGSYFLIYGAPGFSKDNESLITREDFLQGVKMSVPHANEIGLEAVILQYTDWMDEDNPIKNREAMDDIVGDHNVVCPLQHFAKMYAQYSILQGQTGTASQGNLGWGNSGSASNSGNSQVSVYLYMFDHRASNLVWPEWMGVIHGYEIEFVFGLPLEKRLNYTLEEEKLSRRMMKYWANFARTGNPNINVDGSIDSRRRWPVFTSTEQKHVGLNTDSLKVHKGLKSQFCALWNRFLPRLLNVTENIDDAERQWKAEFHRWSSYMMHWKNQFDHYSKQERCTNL
T1 sequence (P81908 whole entry): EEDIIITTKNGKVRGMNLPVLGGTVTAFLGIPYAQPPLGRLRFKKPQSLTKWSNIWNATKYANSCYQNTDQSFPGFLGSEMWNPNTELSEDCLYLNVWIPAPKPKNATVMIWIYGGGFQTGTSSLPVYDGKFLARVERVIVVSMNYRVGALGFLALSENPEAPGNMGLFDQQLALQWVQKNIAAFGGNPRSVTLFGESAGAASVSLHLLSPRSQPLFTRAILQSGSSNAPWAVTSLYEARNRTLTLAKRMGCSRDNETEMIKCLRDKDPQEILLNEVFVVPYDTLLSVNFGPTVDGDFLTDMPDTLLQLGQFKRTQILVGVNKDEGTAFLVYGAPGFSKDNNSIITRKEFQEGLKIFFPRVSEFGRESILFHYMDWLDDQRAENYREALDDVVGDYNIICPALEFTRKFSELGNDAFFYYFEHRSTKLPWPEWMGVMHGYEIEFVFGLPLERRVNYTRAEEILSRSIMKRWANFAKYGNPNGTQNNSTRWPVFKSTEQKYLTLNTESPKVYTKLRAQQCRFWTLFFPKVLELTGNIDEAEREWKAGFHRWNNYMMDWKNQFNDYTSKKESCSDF

| Structure (SMILES) | IC50 [1] | SI (index selectivity) = IC50 (AChE)/IC50 (BChE) [1] | IC50 [2] | IC50 [3] | selectivity to BChE (in words) ([1]; BChE vs AChE) |
| --- | --- | --- | --- | --- | --- |
| COc1ccc(NC(=O)[C@@H]2CCCN2C(=O)OCc2ccccc2)cc1 [Compound 2c, Benzyl (2S)-2-[(4-methoxyphenyl)carbamoyl]pyrrolidine-1-carboxylate] | 117.4 ± 0.45 µM | 0.93 | > 30 µM | 109.4 ± 0.22 µM | – |
| O=C(Nc1ccccc1Br)[C@@H]1CCCN1C(=O)OCc1ccccc1 [Compound 6a, Benzyl (2S)-2-[(2-bromophenyl)carbamoyl]pyrrolidine-1-carboxylate] | 27.4 ± 0.85 µM | 3.07 | > 30 µM | 84.1 ± 4.39 µM | greater selectivity to BChE |
| O=C(Nc1ccc(Br)cc1)[C@@H]1CCCN1C(=O)OCc1ccccc1 [Compound 6c, Benzyl (2S)-2-[(4-bromophenyl)carbamoyl]pyrrolidine-1-carboxylate] | 28.2 ± 0.5 µM | 2.88 | > 30 µM | 81.32 ± 0.67 µM | – |
